Patent US20250049036A1 (priority 2021, published 2025)

Columns and labels:
[1] = tested on: Alternaria solani; test: Alternaria solani (early blight of tomato/potato) mycelial radial growth on potato dextrose agar; format: cell-based; conditions: 168 h, 25° C., seven days, read-out: control compared to the untreated check
Protocol: (§1) The compounds were dissolved in 0.3% dimethyl sulfoxide and then added to potato dextrose agar medium just prior to dispensing it into petri dishes. 5 mL medium, with the compound in the desired concentration, was dispensed into 60 mm sterile petri-plates. After solidification, each plate was seeded with a 5 mm size mycelial disc taken from the periphery of an actively growing virulent culture plate. The plates were incubated in growth chambers at 25° C. temperature and 60% relative humidity for seven days and the radial growth was measured and compared to the one of the untreated control.

[2] = tested on: Colletotrichum capsici; test: Colletotrichum capsici (anthracnose) mycelial radial growth on potato dextrose agar; format: cell-based; conditions: Colletotrichum truncatum, 168 h, 25° C., seven days, read-out: control compared to the untreated check
Summary of the method: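 Compounds in 0.3% DMSO were mixed into potato dextrose agar, and each plate was seeded with a 5 mm mycelial disc from an actively growing culture. Plates were incubated at 25° C and 60% relative humidity for seven days. Radial growth was compared with untreated control.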

[3] = tested on: Corynespora cassiicola; test: Corynespora cassiicola (leaf spot of tomato) mycelial radial growth on potato dextrose agar; format: cell-based; conditions: 168 h, 25° C., seven days, read-out: control compared to the untreated check
Protocol: as §1, with “70%” for “60%”

[4] = tested on: Phakopsora pachyrhizi; test: Phakopsora pachyrhizi test on soybean, preventive, greenhouse; format: in vivo; conditions: preventive spray on soybean, inoculated one day after treatment, read-out: control (efficacy, disease severity) compared to the untreated check
Summary of the method: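 Greenhouse-grown young soybean plants were sprayed with compound (2% DMSO/acetone, emulsifier in water) at the stated rate. One day later they were inoculated with 2×10^5 P. pachyrhizi inoculum and held at 22-24 °C, 80-90% relative humidity for disease development.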

[5] = tested on: Pyricularia oryzae; test: microbe, parasite or virus in culture; format: cell-based; conditions: 168 h, read-out: control compared to the untreated check
[6] = tested on: Parastagonospora nodorum; test: Parastagonospora nodorum (PARANO) spore growth inhibition in liquid medium, 96-well microtiter plate, OD 600; format: cell-based; conditions: spore suspension in PDB liquid medium, 18° C., 5-6 days, OD at 600, read-out: control compared to the untreated check
Summary of the method: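 Read-out is percent growth inhibition from OD at 600 after 5-6 days at 18° C. Compounds, dissolved in DMSO, were diluted in potato dextrose broth and combined in equal volume with a 10^5 spores/ml suspension of PARANO.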

[7] = tested on: Fusarium culmorum; test: Fusarium culmorum test on wheat, preventive, greenhouse; format: in vivo; conditions: preventive spray on wheat, inoculated one day after treatment, read-out: control (efficacy, disease severity) compared to the untreated check
Protocol: The respective compound was dissolved in 2% dimethyl sulfoxide/acetone and then mixed with water containing an emulsifier to a calibrated spray volume of 30 mL. Each spray solution was poured into a spray bottle for further application.
(§2) To test the preventive activity of a compound, healthy young wheat plants, raised in the greenhouse, were sprayed with the active compound preparation at the stated application rate inside the spray cabinets using hollow cone nozzles. One day after the treatment, the plants were inoculated with a spore suspension containing 2×10^6 Fusarium culmorum inoculum. The inoculated plants were then kept in a greenhouse chamber at 24° C. temperature and 80-90% relative humidity for disease expression.
(§3) A visual assessment of the compound's performance was carried out by rating the disease severity (0 100% scale) on treated plants 3, 7, 10 and 15 days after application. Efficacy (% control) of the compound was calculated by comparing the disease rating in the treatment with the one of the untreated control. The treated plants were also assessed for plant damage by recording symptoms like necrosis, chlorosis and stunting.

[8] = tested on: Venturia Inequalis; test: Venturia inequalis (VENTIN) spore growth inhibition in liquid medium, 96-well microtiter plate, OD 600; format: cell-based; conditions: spore suspension in PDB liquid medium, 18° C., 15-18 days, OD at 600, read-out: control compared to the untreated check
Summary of the method: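 Venturia inequalis spores (10^5 spores/ml suspension) were grown in potato dextrose broth with test compounds dissolved in DMSO, mixing equal volumes of compound solution and spore suspension. Plates were incubated at 18 °C for 15–18 days. Growth was read as OD600 and converted to percent inhibition.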

[9] = tested on: Corynespora cassiicola; test: Corynespora cassiicola test on tomato, preventive, greenhouse; format: in vivo; conditions: 500 ppm; preventive spray on tomato, inoculated one day after treatment
Protocol: (§4) The respective compound was dissolved in 2% dimethyl sulfoxide/acetone and then mixed with water containing an emulsifier to the calibrated spray volume of 30 mL. Each spray solution was poured into a spray bottle for further application.
as §2, with “tomato” for “wheat”, “after” for “after the”, “2.6×10^6 Corynespora cassiicola” for “2×10^6 Fusarium culmorum”, “22-24°” for “24°”, “90-95%” for “80-90%”
as §3

[10] = tested on: Phytophthora infestans; test: whole plant or invertebrate; format: in vivo, Phytophthora infestans on tomato; conditions: in Solanum lycopersicum, read-out: control (efficacy, disease severity) compared to the untreated check
[11] = tested on: Botrytis cinerea; test: Botrytis cinerea (gray mold) mycelial radial growth on potato dextrose agar; format: cell-based; conditions: 168 h, 22° C., seven days, read-out: control compared to the untreated check
Summary of the method: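 Compounds in 0.3% DMSO were mixed into potato dextrose agar, and plates were seeded with 5 mm mycelial discs from actively growing virulent culture. After seven days at 22 °C and 90% relative humidity, radial growth was measured relative to untreated control.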

[12] = tested on: Phytophthora infestans; test: microbe, parasite or virus in culture; format: cell-based; conditions: 168 h, read-out: control compared to the untreated check
[13] = tested on: Botrytis cinerea; test: Botrytis cinerea liq. (BOTRCI) spore growth inhibition in liquid medium, 96-well microtiter plate, OD 405 nm; format: cell-based; conditions: spore suspension in YBA liquid medium, 22° C., 5-6 days, OD at 405 nm, read-out: control compared to the untreated check
Summary of the method: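 Spore suspension of B. cinerea (10^4 spores/ml) in YBA liquid medium mixed 1:1 with compound diluted from DMSO. Incubated at 22° C. for 5-6 days. Growth read as OD 405 nm; percent inhibition derived from treatment, untreated-control and blank readings.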

[14] = tested on: Botrytis cinerea; test: Botrytis cinerea test on tomato, preventive, greenhouse; format: in vivo; conditions: preventive spray on bean/chili plants (heading: tomato), inoculated one day after treatment, read-out: control (efficacy, disease severity) compared to the untreated check
[15] = tested on: Alternaria solani; test: Alternaria solani test in tomato, preventive, greenhouse; format: in vivo; conditions: preventive spray on tomato, inoculated one day after treatment, read-out: control (efficacy, disease severity) compared to the untreated check
Protocol: as §4
as §2, with “tomato” for “wheat”, “after” for “after the”, “0.24×10^6 Alternaria solani” for “2×10^6 Fusarium culmorum”, “22-24°” for “24°”, “90-95%” for “80-90%”
as §3

C=C(C)CC(C)(Cc1ccccc1F)NC(=O)c1cnc2ccsc2c1 (stereo not shown) [Compound 129, N-(1-(2-fluorophenyl)-2,4-dimethylpent-4-en-2-yl)thieno[3,2-b] pyridine-6-carboxamide]
≥ 70%: inhibition of growth at 300 ppm [1] | inhibition of growth at 300 ppm [2] | inhibition of growth at 300 ppm [3] | pest or weed control at 500 ppm [4]

Cn1ccc2cc(C(=O)NC(C)(C)Cc3ccc(Cl)cc3)cnc21 [Compound 43, N-(1-(4-chlorophenyl)-2-methylpropan-2-yl)-1-methyl-1H-pyrrolo[2,3-b]pyridine-5-carboxamide]
≥ 70%: inhibition of growth at 300 ppm [5] | inhibition of growth at 300 ppm [3] | inhibition of growth at 300 ppm [6] | pest or weed control at 500 ppm [4]

Cc1cc2cc(C(=O)NC(C)(C)Cc3ccccc3)cnc2n1C [Compound 99, 1,2-dimethyl-N-(2-methyl-1-phenylpropan-2-yl)-1H-pyrrolo[2,3-b] pyridine-5-carboxamide]
≥ 70%: inhibition of growth at 300 ppm [5] | inhibition of growth at 300 ppm [1] | inhibition of growth at 300 ppm [2] | inhibition of growth at 300 ppm [6] | pest or weed control at 500 ppm [7] | pest or weed control at 500 ppm [4]

CC(c1ccccc1F)C(C)(C)NC(=O)c1cnc2c(c1)c(Cl)cn2C (stereo not shown) [Compound 64, 3-chloro-N-(3-(2-fluorophenyl)-2-methylbutan-2-yl)-1-methyl-1H-pyrrolo[2,3-b]pyridine-5-carboxamide]
≥ 70%: inhibition of growth at 300 ppm [5] | inhibition of growth at 300 ppm [8] | pest or weed control at 500 ppm [7] | control (efficacy, disease severity) compared to the untreated check [9] | pest or weed control at 500 ppm [10] | pest or weed control at 500 ppm [4]

CC(C)(NC(=O)c1cnc2ccsc2c1)C(F)(F)F [Compound 109, N-(1,1,1-trifluoro-2-methylpropan-2-yl)thieno[3,2-b] pyridine-6-carboxamide]
≥ 70%: inhibition of growth at 300 ppm [5] | inhibition of growth at 300 ppm [11] | inhibition of growth at 300 ppm [1] | inhibition of growth at 300 ppm [3] | inhibition of growth at 300 ppm [12] | inhibition of growth at 300 ppm [6] | inhibition of growth at 300 ppm [13]

Cc1cc(F)ccc1C(=O)OCC(C)(C)NC(=O)c1cnc2c(ccn2C)c1 [Compound 125, 2-methyl-2-(1-methyl-1H-pyrrolo[2,3-b]pyridine-5-carboxamido)propyl 4-fluoro-2-methylbenzoate]
≥ 70%: inhibition of growth at 300 ppm [3] | pest or weed control at 500 ppm [14] | pest or weed control at 500 ppm [4]

CC(C)CC(C)(Cc1ccccc1)NC(=O)c1cnc2c(ccn2C)c1 (stereo not shown) [Compound 2, N-(2,4-dimethyl-1-phenylpentan-2-yl)-1-methyl-1H-pyrrolo[2,3-b]pyridine-5-carboxamide]
≥ 70%: inhibition of growth at 300 ppm [5] | inhibition of growth at 300 ppm [1] | inhibition of growth at 300 ppm [2] | inhibition of growth at 300 ppm [3] | pest or weed control at 500 ppm [14] | pest or weed control at 500 ppm [15] | pest or weed control at 500 ppm [4]

Cc1ccc(CC(C)(C)NC(=O)c2cnc3c(ccn3C)c2)cc1 [Compound 50, 1-methyl-N-(2-methyl-1-(p-tolyl)propan-2-yl)-1H-pyrrolo[2,3-b] pyridine-5-carboxamide]
≥ 70%: inhibition of growth at 300 ppm [5] | inhibition of growth at 300 ppm [11] | inhibition of growth at 300 ppm [1] | inhibition of growth at 300 ppm [2] | inhibition of growth at 300 ppm [6] | inhibition of growth at 300 ppm [13] | pest or weed control at 500 ppm [7] | pest or weed control at 500 ppm [4]

CC(c1ccccc1F)C(C)(C)NC(=O)c1cnc2c(c1)c(Br)cn2C (stereo not shown) [Compound 63, 3-bromo-N-(3-(2-fluorophenyl)-2-methylbutan-2-yl)-1-methyl-1H-pyrrolo[2,3-b]pyridine-5-carboxamide]
≥ 70%: inhibition of growth at 300 ppm [5] | inhibition of growth at 300 ppm [11] | inhibition of growth at 300 ppm [6] | inhibition of growth at 300 ppm [8] | inhibition of growth at 300 ppm [13] | pest or weed control at 500 ppm [7] | pest or weed control at 500 ppm [14] | pest or weed control at 500 ppm [10] | pest or weed control at 500 ppm [4]

C=C(C)CC(C)(Cc1ccccc1F)NC(=O)c1cnc2c(ccn2C)c1 (stereo not shown) [Compound 127, N-(1-(2-fluorophenyl)-2,4-dimethylpent-4-en-2-yl)-1-methyl-1H-pyrrolo[2,3-b]pyridine-5-carboxamide]
≥ 70%: inhibition of growth at 300 ppm [2] | inhibition of growth at 300 ppm [3] | inhibition of growth at 300 ppm [8] | pest or weed control at 500 ppm [15] | pest or weed control at 500 ppm [4]

C=C(C)CC(C)(COc1ccc(F)cc1)NC(=O)c1cnc2c(ccn2C)c1 (stereo not shown) [Compound 121, N-(1-(4-fluorophenoxy)-2,4-dimethylpent-4-en-2-yl)-1-methyl-1H-pyrrolo[2,3-b]pyridine-5-carboxamide]
≥ 70%: inhibition of growth at 300 ppm [2] | inhibition of growth at 300 ppm [3] | pest or weed control at 500 ppm [7]

CCC(C)(Cc1ccccc1)NC(=O)c1cnc2c(ccn2C)c1 (stereo not shown) [Compound 6, 1-methyl-N-(2-methyl-1-phenylbutan-2-yl)-1H-pyrrolo[2,3-b] pyridine-5-carboxamide]
≥ 70%: inhibition of growth at 300 ppm [1] | inhibition of growth at 300 ppm [2] | inhibition of growth at 300 ppm [3] | inhibition of growth at 300 ppm [6] | inhibition of growth at 300 ppm [13]

CC(C)(C)NC(=O)c1cnc2ccsc2c1 [Compound 107, N-(tert-butyl)thieno[3,2-b] pyridine-6-carboxamide]
≥ 70%: inhibition of growth at 300 ppm [3] | inhibition of growth at 300 ppm [8] | pest or weed control at 500 ppm [4]
